Consider 15 molecules from US8273754B2, “Substituted 1H-pyrazolo[3,4-D]pyrimidine-6-amine compounds” (ArQule, Inc., priority 2008, dated 2012).

Structures are written as SMILES. pIC50: −log10 of the molar value. Read-outs that look alike come from different tables or passages of the source. Where only a bound is given, the exact number is not on record here.

One test deals with T1, FGFR2 (N549H) (Homo sapiens, UniProt P21802, N549H).
T1 construct: purchased Millipore 14-742
Description: fluorescent ELISA assay for inhibitors of FGFR2 kinase. It is filed as biochemical. To be noted: Pyk2 peptide substrate, 60 minutes. As for the experimental part:
The enzymatic assays described herein are conducted according to the following procedures from commercially available reagents. In one non-limiting example, a fluorescent ELISA assay is used to identify and characterize inhibitors of FGFR2 kinase as described herein. This heterogeneous assay utilizes a biotinylated peptide with a tyrosine motif as a substrate and an anti-phospho-tyrosine antibody to measure phosphorylation of the substrate. The reaction is initiated by adding the test compound, 37 μM Pyk2 substrate (Midwest Biotech, Cat. #MBT2383), 12.5 μM ATP (Roche, Cat. #11 140 965 001) and 0.5 μM FGFR2 enzyme (Millipore, Cat. #14-742) sequentially to a non-binding polypropylene V-well plate. All reagents are in an assay buffer consisting of: 50 mM Tris-HCL, 0.02 mg/ml BSA, 10 mM MgCl2, 0.1 mM Na3VO4, 1 mM EGTA, 75 μM ATP, 0.01% NP-40, 2 mM DTT and 10% glycerol. The reaction is incubated for 60 minutes. As the reaction proceeds, FGFR2 phosphorylates tyrosines in the peptide. The reaction mixture is then moved to a blocked streptavidin-coated Nunc Maxisorb plate (coated with 100 ng streptavidin from Pierce (Cat. #15-124) per well), allowing for the capture of the biotinylated peptide. Peptides are captured for 30 minutes at room temperature, the phosphorylation of peptides continues during this phase. The reaction is stopped by washing the streptavidin-coated plate 6 times with TBST. Phosphorylated peptide is detected by adding anti-phospho-tyrosine antibody (Cell Signaling, Cat. #9411, diluted 1:3000) to the streptavidin-coated plate. Unbound anti-phospho-tyrosine antibody is removed by washing the streptavidin-coated plate 6 times with TBST. Secondary detection is performed using alkaline phosphatase tagged goat anti-mouse antibody (Pierce, Cat. #31320, diluted 1:4000) for one hour. Unbound secondary antibody is removed by washing the streptavidin-coated plate 6 times with TBST. The fluorescent readout is initiated by adding to the streptavidin-coated plate Promega Attophos substrate (Promega, Cat. #S1000, dilution=6 mg/10 ml), which, when dephosphorylated by alkaline phosphatase, emits a fluorescent signal of 595 nm in wavelength when excited by a signal of 400 nm in wavelength. The reading of the 595 nm signal is done on the Perkin Elmer Envision system. Compounds which prevent FGFR2 from phosphorylating the peptide result in a lower fluorescent signal. The 595 nm fluorescent signal is directly proportional to the activity of FGFR2. Thus, the inhibition of FGFR2 by compounds is monitored by the decrease in the 595 nm fluorescent signal.

In the next test the test system is cancer cells. Description: MTS cell growth inhibition assay (72 hours). It is filed as cell-based. Summed up: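 Cells in DMEM with 1% FBS, seeded 18 h, then compound-treated 72 h at 37 °C. Viability by MTS/PMS for 4 h, formazan absorbance at 492 nm; IC50 taken as concentration giving 50% absorbance drop, activity banded by percent inhibition.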
Where [1] appears, read: Homo sapiens, DLD-1, 72 h, DLD-1 cells, read-out: DLD-1 MTS 72 hr at 10 μM.
The mark [2] stands for this setting: Homo sapiens, KATO III, 72 h, KATO III cells, read-out: KATO III MTS 72 hr at 10 μM.
The mark [3] stands for this setting: Homo sapiens, MDA-MB-231, 72 h, MDA-MB-231 cells, read-out: MDA-MB-231 MTS 72 hr at 10 μM.
The mark [4] stands for this setting: Homo sapiens, NCI-H1299, 72 h, NCI-H1299 cells, read-out: NCI-H1299 MTS 72 hr at 10 μM.
The mark [5] stands for this setting: PaCa-2, 72 h, PACA-2 cells, read-out: PACA-2 MTS 72 hr at 10 μM.

T1 sequence (P21802 22-821 N549H): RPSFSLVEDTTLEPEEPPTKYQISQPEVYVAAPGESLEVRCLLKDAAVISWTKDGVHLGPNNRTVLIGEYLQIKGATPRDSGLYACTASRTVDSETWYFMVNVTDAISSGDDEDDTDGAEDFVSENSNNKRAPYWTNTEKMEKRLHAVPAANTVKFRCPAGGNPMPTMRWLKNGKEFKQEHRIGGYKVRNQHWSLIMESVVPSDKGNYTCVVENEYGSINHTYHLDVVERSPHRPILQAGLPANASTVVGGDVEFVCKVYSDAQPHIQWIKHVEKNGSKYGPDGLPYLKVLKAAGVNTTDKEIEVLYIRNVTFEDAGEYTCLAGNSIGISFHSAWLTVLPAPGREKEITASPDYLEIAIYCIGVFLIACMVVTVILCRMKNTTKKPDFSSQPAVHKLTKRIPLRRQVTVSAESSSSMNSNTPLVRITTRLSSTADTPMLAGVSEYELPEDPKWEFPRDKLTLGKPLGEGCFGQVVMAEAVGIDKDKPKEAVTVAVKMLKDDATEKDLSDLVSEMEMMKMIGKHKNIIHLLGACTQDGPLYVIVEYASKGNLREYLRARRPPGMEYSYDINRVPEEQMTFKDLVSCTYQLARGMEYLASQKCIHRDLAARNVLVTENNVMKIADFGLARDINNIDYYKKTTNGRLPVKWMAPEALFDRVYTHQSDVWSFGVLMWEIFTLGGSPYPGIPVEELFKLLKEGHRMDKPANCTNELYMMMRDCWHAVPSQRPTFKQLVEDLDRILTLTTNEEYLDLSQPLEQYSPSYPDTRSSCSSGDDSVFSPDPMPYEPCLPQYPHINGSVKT

In the case of `Nc1nc(NC2Cc3ccccc3N(S(=O)(=O)c3ccc(F)cc3F)C2)c2cn[nH]c2n1` (stereo not shown) [Compound 47, N4-(1-(2,4-difluorophenylsulfonyl)-1,2,3,4-tetrahydroquinolin-3-yl)-1H-pyrazolo[3,4-d]pyrimidine-4,6-diamine], the pIC50 against FGFR2 (N549H) was 6.41. Further, the inhibition at 10 µM in the test on cancer cells (setting [1]), with cancer cells (setting [2]), in the test with cancer cells (setting [3]), in the test on cancer cells (setting [4]) and with cancer cells (setting [5]) was under 50% in each case.
In the case of `COc1ccc(S(=O)(=O)N2CC(Nc3nc(N)nc4[nH]ncc34)Cc3ccccc32)cc1` (stereo not shown) [Compound 42, N4-(1-(4-methoxyphenylsulfonyl)-1,2,3,4-tetrahydroquinolin-3-yl)-1H-pyrazolo[3,4-d]pyrimidine-4,6-diamine], the pIC50 at FGFR2 (N549H) was 4.80. Moreover, the inhibition at 10 µM in the test on cancer cells (setting [1]) was under 50%; with cancer cells (setting [2]), 50 to 79%; in the test on cancer cells (setting [3]) it was under 50%; with cancer cells (setting [4]) it was under 50%; in the test on cancer cells (setting [5]) it was under 50%.
Consider `CC(C)c1ccc(S(=O)(=O)N2CC(Nc3nc(N)nc4[nH]ncc34)Cc3ccccc32)cc1` (stereo not shown) [Compound 56, N4-(1-(4-isopropylphenylsulfonyl)-1,2,3,4-tetrahydroquinolin-3-yl)-1H-pyrazolo[3,4-d]pyrimidine-4,6-diamine], for which, at FGFR2 (N549H), the pIC50 was under 4.52. The inhibition at 10 µM in the test on cancer cells (setting [1]), in the test on cancer cells (setting [2]), in the test with cancer cells (setting [3]), with cancer cells (setting [4]) and in the test with cancer cells (setting [5]) was under 50% each time.
For the molecule `CC(=O)Nc1ccc(S(=O)(=O)N2CC(Nc3nc(N)nc4[nH]ncc34)Cc3ccccc32)cc1` (stereo not shown) [Compound 40, N-(4-(3-(6-amino-1H-pyrazolo[3,4-d]pyrimidin-4-ylamino)-3,4-dihydroquinolin-1(2H)-ylsulfonyl)phenyl)acetamide], on FGFR2 (N549H), the pIC50 was under 4.52. Besides, the inhibition at 10 µM in the test on cancer cells (setting [1]), in the test with cancer cells (setting [2]), with cancer cells (setting [3]), in the test with cancer cells (setting [4]) and in the test with cancer cells (setting [5]) was under 50% throughout.
In turn, `Nc1nc(NC2Cc3ccccc3N(S(=O)(=O)c3cc(F)ccc3F)C2)c2cn[nH]c2n1` (stereo not shown) [Compound 55, N4-(1-(2,5-difluorophenylsulfonyl)-1,2,3,4-tetrahydroquinolin-3-yl)-1H-pyrazolo[3,4-d]pyrimidine-4,6-diamine] had a pIC50 at FGFR2 (N549H) of 6.72. The inhibition at 10 µM is over 79% with cancer cells (setting [1]); 50 to 79% with cancer cells (setting [2]); 50 to 79% in the test on cancer cells (setting [3]); under 50% in the test on cancer cells (setting [4]); over 79% with cancer cells (setting [5]).
For `Nc1nc(NC2Cc3ccccc3N(Cc3ccc(F)c(F)c3)C2)c2cn[nH]c2n1` (stereo not shown) [Compound 124, N4-[1-(3,4-difluorobenzyl)-1,2,3,4-tetrahydroquinolin-3-yl]-1H-pyrazolo[3,4-d]pyrimidine-4,6-diamine], on FGFR2 (N549H), the pIC50 is 5.88.
For `CCC(C)(C)c1ccc(S(=O)(=O)N2CC(Nc3nc(N)nc4[nH]ncc34)Cc3ccccc32)cc1` (stereo not shown) [Compound 61, N4-(1-(4-tert-pentylphenylsulfonyl)-1,2,3,4-tetrahydroquinolin-3-yl)-1H-pyrazolo[3,4-d]pyrimidine-4,6-diamine], the inhibition at 10 µM in the test with cancer cells (setting [1]), in the test on cancer cells (setting [2]), with cancer cells (setting [3]), in the test on cancer cells (setting [4]) and with cancer cells (setting [5]) was under 50% throughout.
Take `Nc1nc(NC2Cc3ccccc3N(S(=O)(=O)c3cc(Cl)cc(Cl)c3)C2)c2cn[nH]c2n1` (stereo not shown) [Compound 36, N4-(1-(3,5-dichlorophenylsulfonyl)-1,2,3,4-tetrahydroquinolin-3-yl)-1H-pyrazolo[3,4-d]pyrimidine-4,6-diamine]: the inhibition at 10 µM in the test with cancer cells (setting [1]) was under 50%; with cancer cells (setting [2]), 50 to 79%; in the test on cancer cells (setting [3]) it was under 50%; in the test with cancer cells (setting [4]), under 50%; in the test with cancer cells (setting [5]), under 50%.
As for `COc1ccccc1Oc1cccc(S(=O)(=O)N2CC(Nc3nc(N)nc4[nH]ncc34)Cc3ccccc32)c1` (stereo not shown) [Compound 77, N4-(1-(3-(2-methoxyphenoxy)phenylsulfonyl)-1,2,3,4-tetrahydroquinolin-3-yl)-1H-pyrazolo[3,4-d]pyrimidine-4,6-diamine], the inhibition at 10 µM was under 50% in the test on cancer cells (setting [1]); 50 to 79% in the test with cancer cells (setting [2]); under 50% in the test with cancer cells (setting [3]); under 50% in the test with cancer cells (setting [4]); under 50% with cancer cells (setting [5]).
Take `Nc1nc(NC2Cc3ccccc3N(S(=O)(=O)c3ccc(-c4ccc(F)cc4)cc3)C2)c2cn[nH]c2n1` (stereo not shown) [Compound 65, N4-(1-(4′-fluorobiphenyl-4-ylsulfonyl)-1,2,3,4-tetrahydroquinolin-3-yl)-1H-pyrazolo[3,4-d]pyrimidine-4,6-diamine]: the inhibition at 10 µM with cancer cells (setting [1]) is 50 to 79%; in the test with cancer cells (setting [2]), over 79%; in the test on cancer cells (setting [3]), 50 to 79%; in the test with cancer cells (setting [4]) it was 50 to 79%; in the test on cancer cells (setting [5]) it was over 79%.
Turning to `COc1ccc(-n2ncc(CN3CC(Nc4nc(N)nc5[nH]ncc45)Cc4ccccc43)c2C)cc1` (stereo not shown) [Compound 157, N4-(1-{[1-(4-methoxyphenyl)-5-methyl-1H-pyrazol-4-yl]methyl}-1,2,3,4-tetrahydroquinolin-3-yl)-1H-pyrazolo[3,4-d]pyrimidine-4,6-diamine], the inhibition at 10 µM with cancer cells (setting [1]) was under 50%; in the test with cancer cells (setting [2]), 50 to 79%; with cancer cells (setting [3]) it was under 50%; in the test on cancer cells (setting [4]), under 50%; in the test with cancer cells (setting [5]), under 50%.
For the molecule `Nc1nc(NC2Cc3ccccc3N(C(=O)NCc3ccc(F)cc3)C2)c2cn[nH]c2n1` (stereo not shown) [Compound 115, 3-(6-amino-1H-pyrazolo[3,4-d]pyrimidin-4-ylamino)-N-(4-fluorobenzyl)-3,4-dihydroquinoline-1(2H)-carboxamide], the inhibition at 10 µM in the test on cancer cells (setting [1]), in the test with cancer cells (setting [2]), in the test with cancer cells (setting [3]), in the test with cancer cells (setting [4]) and in the test on cancer cells (setting [5]) was under 50% in each case.
In the case of `Nc1nc(NC2Cc3ccccc3N(S(=O)(=O)c3cccc(NC(=O)Nc4ccc5c(c4)Cc4ccccc4-5)c3)C2)c2cn[nH]c2n1` (stereo not shown) [Compound 202, 1-[3-({3-[(6-amino-1H-pyrazolo[3,4-d]pyrimidin-4-yl)amino]-3,4-dihydroquinolin-1(2H)-yl}sulfonyl)phenyl]-3-(9H-fluoren-2-yl)urea], the inhibition at 10 µM in the test with cancer cells (setting [1]) is over 79%; in the test with cancer cells (setting [2]) it was over 79%; with cancer cells (setting [3]) it was over 79%; in the test with cancer cells (setting [4]) it was 50 to 79%; with cancer cells (setting [5]), over 79%.
As to `Nc1nc(NC2Cc3ccccc3N(S(=O)(=O)c3ccc(F)cc3)C2)c2cn[nH]c2n1` (stereo not shown) [Compound 20, N4-(1-(4-fluorophenylsulfonyl)-1,2,3,4-tetrahydroquinolin-3-yl)-1H-pyrazolo[3,4-d]pyrimidine-4,6-diamine], the inhibition at 10 µM in the test with cancer cells (setting [1]), in the test with cancer cells (setting [2]), in the test with cancer cells (setting [3]), in the test with cancer cells (setting [4]) and in the test with cancer cells (setting [5]) was under 50% each time.
Take `Cc1ccc(Oc2ccccc2CN2CC(Nc3nc(N)nc4[nH]ncc34)Cc3ccccc32)cc1` (stereo not shown) [Compound 158, N4-{1-[2-(4-methylphenoxy)benzyl]-1,2,3,4-tetrahydroquinolin-3-yl}-1H-pyrazolo[3,4-d]pyrimidine-4,6-diamine]: the inhibition at 10 µM was over 79% in the test on cancer cells (setting [1]); over 79% with cancer cells (setting [2]); 50 to 79% in the test with cancer cells (setting [3]); under 50% in the test with cancer cells (setting [4]); over 79% in the test on cancer cells (setting [5]).
